Consider 13 compounds from patent US12459951B2, “Compounds that interact with RAS superfamily proteins for treatment of cancers, inflammatory diseases, rasopathies, and fibrotic disease” (SHY Therapeutics, LLC, priority 2022, dated 2025).

The test system of experiment [1] is MiaPaca-2 (expressing KRAS G12C mutant). Briefly: Proliferation Assay (Cell Viability Assay). Type of experiment: cell-based. The settings on record: Homo sapiens, MIA PaCa-2. Summed up: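 After 2–4 days' exposure at 37 °C, 5% CO2 to a single 10 μM final concentration or a dilution series (IC50), percent proliferation inhibition was derived from CellTiter 96 Aqueous One viability readings. The medium contained 0.3% DMSO and 10% FBS. KRAS G12C MiaPaca-2 cells were plated at 2000–5000/well the day before.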

For experiment [2], the system named is KRas wild type. Put plainly: Ras GTP Binding Domain Inhibition Assay (Ras Superfamily Assay). The settings on record: for KRas wild type + SOS: % inh.: with SOS; for KRas wild type: % inh.: without SOS. Summed up: (§1)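 Binding of 100 nM fluorescent GTP (Cy3 or Cy5, 45 min, room temperature) was read after washes from plate-captured His-tagged protein. Beforehand, compounds at 20 μM or in dilution series for IC50 sat 3 h on the protein in Tris buffer pH 7.4 or 7.0 with 1% DMSO, Sos GEF optionally added for the last hour.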

Experiment [3] concerns KRas G12D mutant. The description is as above. The following applies: for KRas G12D mutant + SOS: % inh.: with SOS; for KRas G12D mutant: % inh.: without SOS. The essentials:
as §1

For experiment [4], the target named is T1, Rac-1 (Homo sapiens, UniProt P63000).
T1 construct: made in house
Described as above. The following applies: read-out: Rac-1: % inh. Summed up:
as §1

[5] abbreviates: read-out: Proliferation in MiaPaca-2: IC50.

Like-named read-outs stand apart in the source and are kept apart here.

`CO[C@H]1CC[C@H](Nc2nc(-c3nccn3C)nn3cc(-c4ccn(C)n4)c(C(=O)NCCN4CCOCC4)c23)C1` (racemic) [Compound 185, rac 4-(((1S,3S)-3-methoxycyclo-pentyl)amino)-2-(1-methyl-1H-imidazol-2-yl)-6-(1-methyl-1H-pyrazol-3-yl)-N-(2-morpholino-ethyl)pyrrolo[2,1-f][1,2,4]triazine-5-carboxamide]: in experiment [1] (setting [5]), the IC50 was over 1000 nM. In experiment [2] (20 μM compound), the “KRas wild type + SOS: % inh.” value is given as 0 (0 = 0% inhibition) and the “KRas wild type: % inh.” value is listed as “A (A = 1-25% inhibition)”. In experiment [3] (20 μM compound), the “KRas G12D mutant + SOS: % inh.” value is 0 (0 = 0% inhibition) and the “KRas G12D mutant: % inh.” value is “A (A = 1-25% inhibition)”. The inhibition at 20 µM in experiment [4] worked out at 0%.
For `CO[C@H]1CC[C@@H](Nc2nc(-c3nccn3C)nn3cc(-c4cccnc4)c(-c4ccccc4)c23)C1` (racemic) [Compound 193, rac N-((1R,3S)-3-Methoxycyclopentyl)-2-(1-methyl-1H-imidazol-2-yl)-5-phenyl-6-(pyridin-3-yl)pyrrolo[2,1-f][1,2,4]triazin-4-amine], in experiment [1] (setting [5]), the IC50 was over 1000 nM. In experiment [2] (at 20 μM), the “KRas wild type + SOS: % inh.” value was “A (A = 1-25% inhibition)” and the “KRas wild type: % inh.” value is “A (A = 1-25% inhibition)”. Further, in experiment [3] (at 20 μM), the “KRas G12D mutant + SOS: % inh.” value is given as “A (A = 1-25% inhibition)” and the “KRas G12D mutant: % inh.” value is “A (A = 1-25% inhibition)”. The inhibition at 20 µM in experiment [4] lay in the range of 1 to 25%.
`COc1ccnc(N(C)c2nc(-c3nccn3C)nn3cc(-c4ccn(C)n4)c(C)c23)c1` [Compound 223, N-(4-Methoxypyridin-2-yl)-N,5-dimethyl-2-(1-methyl-1H-imidazol-2-yl)-6-(1-methyl-1H-pyrazol-3-yl)pyrrolo[2,1-f][1,2,4]triazin-4-amine]: the IC50 in experiment [1] (setting [5]) is over 1000 nM. In addition, in experiment [2] (at 20 μM), the “KRas wild type + SOS: % inh.” value is 0 (0 = 0% inhibition) and the “KRas wild type: % inh.” value was “B (B = 26-49% inhibition)”. For the same compound, in experiment [3] (at 20 μM), the “KRas G12D mutant + SOS: % inh.” value is given as “A (A = 1-25% inhibition)” and the “KRas G12D mutant: % inh.” value was “B (B = 26-49% inhibition)”. For the same compound, the inhibition at 20 µM in experiment [4] fell in the range of 26 to 49%.
Take `Cc1ccc(Nc2nc(-c3nccn3C)nn3cc(-c4ccn(C)n4)c(C)c23)nc1` [Compound 226, 5-Methyl-2-(1-methyl-1H-imidazol-2-yl)-6-(1-methyl-1H-pyrazol-3-yl)-N-(5-methylpyridin-2-yl)pyrrolo[2,1-f][1,2,4]triazin-4-amine]: in experiment [1] (setting [5]), the IC50 was under 150 nM. In addition, in experiment [2] (at 20 μM), the “KRas wild type + SOS: % inh.” value is “D (D = 76-100% inhibition)” and the “KRas wild type: % inh.” value is “D (D = 76-100% inhibition)”. In addition, in experiment [3] (at 20 μM), the “KRas G12D mutant + SOS: % inh.” value is listed as “D (D = 76-100% inhibition)” and the “KRas G12D mutant: % inh.” value is given as “D (D = 76-100% inhibition)”. Besides, the inhibition at 20 µM in experiment [4] is 76 to 100%.
On to `COCCNc1nc(-c2nccn2C)nn2cc(-c3ccncc3)c(-c3ccccc3)c12` [Compound 202, N-(2-Methoxyethyl)-2-(1-methyl-1H-imidazol-2-yl)-5-phenyl-6-(pyridin-4-yl)pyrrolo[2,1-f][1,2,4]triazin-4-amine], for which the IC50 in experiment [1] (setting [5]) was over 1000 nM. Besides, in experiment [2] (at 20 μM), the “KRas wild type + SOS: % inh.” value is listed as “C (C = 50-75% inhibition)” and the “KRas wild type: % inh.” value was “B (B = 26-49% inhibition)”. Besides, in experiment [3] (at 20 μM), the “KRas G12D mutant + SOS: % inh.” value was “C (C = 50-75% inhibition)” and the “KRas G12D mutant: % inh.” value is reported as “C (C = 50-75% inhibition)”. The inhibition at 20 µM in experiment [4] is 26 to 49%.
As for `CO[C@@H]1C[C@H]1Nc1nc(-c2nccn2C)nn2cc(-c3cccnc3)c(-c3ccccc3)c12` (racemic) [Compound 190, N-((1R,2R)-2-Methoxycyclopropyl)-2-(1-methyl-1H-imidazol-2-yl)-5-phenyl-6-(pyridin-3-yl)pyrrolo[2,1-f][1,2,4]triazin-4-amine], in experiment [1] (setting [5]), the IC50 is over 1000 nM. In addition, in experiment [2] (at 20 μM), the “KRas wild type + SOS: % inh.” value is listed as “B (B = 26-49% inhibition)” and the “KRas wild type: % inh.” value was “A (A = 1-25% inhibition)”. Also, in experiment [3] (at 20 μM), the “KRas G12D mutant + SOS: % inh.” value is “B (B = 26-49% inhibition)” and the “KRas G12D mutant: % inh.” value was “B (B = 26-49% inhibition)”. The inhibition at 20 µM in experiment [4] lay within 26 to 49%.
On to `CCOc1ccc(Nc2nc(-c3nccn3C)nn3cc(-c4ccn(C)n4)c(C)c23)nc1` [Compound 229, N-(5-Ethoxypyridin-2-yl)-5-methyl-2-(1-methyl-1H-imidazol-2-yl)-6-(1-methyl-1H-pyrazol-3-yl)pyrrolo[2,1-f][1,2,4]triazin-4-amine], for which the IC50 in experiment [1] (setting [5]) lay within 150 to 500 nM. Also, in experiment [2] (at 20 μM), the “KRas wild type + SOS: % inh.” value is reported as “D (D = 76-100% inhibition)” and the “KRas wild type: % inh.” value was “C (C = 50-75% inhibition)”. Besides, in experiment [3] (at 20 μM), the “KRas G12D mutant + SOS: % inh.” value is “D (D = 76-100% inhibition)” and the “KRas G12D mutant: % inh.” value is recorded as “D (D = 76-100% inhibition)”. For the same compound, the inhibition at 20 µM in experiment [4] is 76 to 100%.
Take `COc1cc(Nc2nc(-c3nccn3C)nn3cc(-c4ccn(C)n4)c(C)c23)ncc1C1CC1` [Compound 238, N-(5-Cyclopropyl-4-methoxypyridin-2-yl)-5-methyl-2-(1-methyl-1H-imidazol-2-yl)-6-(1-methyl-1H-pyrazol-3-yl)pyrrolo[2,1-f][1,2,4]triazin-4-amine]: in experiment [1] (Proliferation assay, MiaPaca-2, read-out: MiaPaca-2 IC50 (nM) Pancreatic), the IC50 fell in the range of 1 to 10 nM. Also, the IC50 in experiment [1] (setting [5]) was under 150 nM. In addition, in experiment [2] (at 20 μM), the “KRas wild type + SOS: % inh.” value was “D (D = 76-100% inhibition)” and the “KRas wild type: % inh.” value is given as “D (D = 76-100% inhibition)”. Besides, in experiment [3] (at 20 μM), the “KRas G12D mutant + SOS: % inh.” value is on record as “D (D = 76-100% inhibition)” and the “KRas G12D mutant: % inh.” value is “D (D = 76-100% inhibition)”. Also, in experiment [4], the inhibition at 20 µM lay in the range of 76 to 100%.
As to `COCC1CCN(c2nc(-c3ccccn3)nn3cc(-c4ccn(C(C)C)n4)c(C)c23)C1` (racemic) [Compound 10, rac 6-(1-Isopropyl-1H-pyrazol-3-yl)-4-(3-(methoxymethyl)pyrrolidin-1-yl)-5-methyl-2-(pyridin-2-yl)pyrrolo[2,1-f][1,2,4]triazine], in experiment [1] (setting [5]), the IC50 is over 1000 nM. Further, in experiment [2] (20 μM compound), the “KRas wild type + SOS: % inh.” value is given as 0 (0 = 0% inhibition) and the “KRas wild type: % inh.” value is “A (A = 1-25% inhibition)”. Further, in experiment [3] (20 μM compound), the “KRas G12D mutant + SOS: % inh.” value was 0 (0 = 0% inhibition) and the “KRas G12D mutant: % inh.” value is listed as “A (A = 1-25% inhibition)”. In addition, the inhibition at 20 µM in experiment [4] was in the range of 1 to 25%.
For the compound `CO[C@H]1C[C@H](Nc2nc(-c3nccn3C)nn3cc(-c4cccnc4)c(-c4ccccc4)c23)C1` [Compound 192, N-((1r,3r)-3-Methoxycyclobutyl)-2-(1-methyl-1H-imidazol-2-yl)-5-phenyl-6-(pyridin-3-yl)pyrrolo[2,1-f][1,2,4]triazin-4-amine], the IC50 in experiment [1] (setting [5]) is over 1000 nM. Moreover, in experiment [2] (at 20 μM), the “KRas wild type + SOS: % inh.” value is “B (B = 26-49% inhibition)” and the “KRas wild type: % inh.” value is on record as “B (B = 26-49% inhibition)”. In experiment [3] (at 20 μM), the “KRas G12D mutant + SOS: % inh.” value was “B (B = 26-49% inhibition)” and the “KRas G12D mutant: % inh.” value was “B (B = 26-49% inhibition)”. Besides, the inhibition at 20 µM in experiment [4] lay within 1 to 25%.
`COc1ccnc(Nc2nc(-c3nccn3C)nn3cc(-c4ccn(CCNC(=O)CCCC[C@H]5SC[C@H]6NC(=O)N[C@H]65)n4)c(C)c23)c1` [Compound 215, N-(2-(3-(4-((4-methoxypyridin-2-yl)amino)-5-methyl-2-(1-methyl-1H-imidazol-2-yl)pyrrolo[2,1-f][1,2,4]triazin-6-yl)-1H-pyrazol-1-yl)ethyl)-5-((3aR,4R,6aS)-2-oxohexahydro-1H-thieno[3,4-d]imidazol-4-yl)pentanamide]: the IC50 in experiment [1] (setting [5]) was over 1000 nM. Besides, in experiment [2] (at 20 μM), the “KRas wild type + SOS: % inh.” value was “D (D = 76-100% inhibition)” and the “KRas wild type: % inh.” value was “D (D = 76-100% inhibition)”. Besides, in experiment [3] (at 20 μM), the “KRas G12D mutant + SOS: % inh.” value is recorded as “D (D = 76-100% inhibition)” and the “KRas G12D mutant: % inh.” value was “D (D = 76-100% inhibition)”. For the same compound, in experiment [4], the inhibition at 20 µM was in the range of 76 to 100%.
With `COc1ccnc(Nc2nc(-c3nccn3C)nn3cc(-c4cccnc4)c(-c4ccccc4)c23)c1` [Compound 196, N-(4-Methoxypyridin-2-yl)-2-(1-methyl-1H-imidazol-2-yl)-5-phenyl-6-(pyridin-3-yl)pyrrolo[2,1-f][1,2,4]triazin-4-amine], the IC50 in experiment [1] (setting [5]) was under 150 nM. Also, in experiment [2] (at 20 μM), the “KRas wild type + SOS: % inh.” value is on record as “D (D = 76-100% inhibition)” and the “KRas wild type: % inh.” value was “D (D = 76-100% inhibition)”. Further, in experiment [3] (at 20 μM), the “KRas G12D mutant + SOS: % inh.” value is “D (D = 76-100% inhibition)” and the “KRas G12D mutant: % inh.” value is reported as “D (D = 76-100% inhibition)”. Besides, the inhibition at 20 µM in experiment [4] was 76 to 100%.
For the compound `Cn1ccnc1-c1nc(NS(C)(=O)=O)c2c(-c3ccccc3)c(-c3ccccc3)cn2n1` [Compound 212, N-(2-(1-Methyl-1H-imidazol-2-yl)-5,6-diphenylpyrrolo[2,1-f][1,2,4]triazin-4-yl) methanesulfonamide], the IC50 in experiment [1] (setting [5]) was over 1000 nM. Further, in experiment [2] (at 20 μM), the “KRas wild type + SOS: % inh.” value is given as “D (D = 76-100% inhibition)” and the “KRas wild type: % inh.” value is “C (C = 50-75% inhibition)”. In experiment [3] (at 20 μM), the “KRas G12D mutant + SOS: % inh.” value is “D (D = 76-100% inhibition)” and the “KRas G12D mutant: % inh.” value was “C (C = 50-75% inhibition)”. Also, the inhibition at 20 µM in experiment [4] was 50 to 75%.
